Consider one substance from patent publication US20230293562A1, “[…] COMBINATION OF GALNAC-OLIGO[…] AND SAPONIN, AND USES THEREOF” (SAPREME TECHNOLOGIES B.V., priority 2020, published 2023).

[BNANC] = BNA^NC bridged nucleic acid nucleoside; {ThiolC6} = thiol C6 linker; d = 2'-deoxy (DNA)

Holding throughout (format): cell-based
In data set [1] the test system is ApoB. Description: ApoB RNA expression analysis (qPCR) in mouse primary hepatocytes. The conditions noted are these: 72 hrs incubation. How it is done:
(§1) RNA from cells was isolated using TRI Reagent® Solution (Thermo Scientific) according to the manufacturer’s instruction. Conversion into cDNA was performed using iScript™ cDNA Synthesis Kit (BioRad) using standard protocols. ApoB expression levels and levels of specific hepatocyte housekeeping genes were determined using quantitative real-time PCR assays (qRT-PCR) using iTaq™ Universal SYBR® Green Supermix (BioRad) and the Light Cycler 480 (Roche Diagnostics, Rotkreuz, Switzerland) with specific DNA primers, listed in Table A4 (murine) and Table A2 (human). Analysis was done by the ΔCt method to determine ApoB expression relative to 2 hepatocyte-specific housekeeping control mRNAs. Each analysis reaction was performed in triplicate.
Cryopreserved primary mouse hepatocytes ([…] Cell Culture Technology GmbH, Germany) were thawed in hepatocyte thawing media (HTM, […] Cell Culture Technology GmbH, Germany) and washed 1x with hepatocyte wash media (HWM, […] Cell Culture Technology GmbH, Germany). Cells were re-suspended in hepatocyte plating media (HPM Cryo, […] Cell Culture Technology GmbH, Germany) at a density of approx. 0.275 × 10^6 cells/ml. […] Plating medium was replaced by 315 µl or 108 µl assay media (MHM, […] Cell Culture Technology GmbH, Germany), after which conjugates were added from a 10x concentrated stock solution in PBS.

For data set [2], the system named is ApoB. The data set can be described thus: ApoB RNA expression analysis in human primary hepatocytes. Conditions: read-out: IC50 ApoB gene silencing. The protocol: (§2) ApoBBNA (ApoBBNA#01, targeting human ApoB mRNA) was conjugated to trivalent-GalNAc ((GalNAc)3) (FIG. 6) and primary hepatocytes (ASGPR1^+) cells were treated with a range of concentrations of (GalNAc)3-ApoBBNA#01 with and without addition of 2000 nM SO1861. ApoB gene silencing in primary hepatocytes (ASGPR1^+) cells was determined.
(§3) ApoB gene silencing in primary hepatocytes (ASGPR1^+) cells was determined. […] The dotted line in the ApoBBNA#02 RNAiMAX indicates concentrations at which toxicity and cell death occurs.
as §1

Data set [3] relates to human primary hepatocytes (ASGPR1+). Description: Cell viability assay on human primary hepatocytes. The conditions noted are these: + RNAiMAX. The protocol: as §2, §3
Briefly, the MTS solution was diluted 20× in DMEM without phenol red (PAN-Biotech GmbH) supplemented with 10% FBS. The cells were washed once with 200 µL/PBS well, after which 100 µL diluted MTS solution was added/well. The plate was incubated for approximately 20-30 minutes at 37° C. Subsequently, the OD at 492 nm was measured on a Thermo Scientific Multiskan FC plate reader (Thermo Scientific).

Broadly, the IC50 is the concentration at which inhibition is half-maximal. For “ApoBBNA#02: murine and human sequence-compatible ApoB BNA^NC oligonucleotide 5′-GCattggtatTCA-3′ [SEQ ID NO: 12], fully phosphorothioated (antisense GCATTGGTATTCA; sugars from the 5' end [BNANC]2 d8 [BNANC]3, all phosphorothioate, 5' {ThiolC6}, methylation of C not given here)”, in the data set with ApoB [1], the “fold less potent in ApoB RNA downmodulation than (GalNAc)3-ApoB#02 BNA + 2000 nM SO1861-EMCH” value is given as 100 - 667 fold. Also, the concentration for half-maximal inhibition (IC50) with ApoB [1] (alone, without SO1861-EMCH, read-out: IC50 ApoB RNA expression inhibition) stood at 0.02 µM; with ApoB [2] (RNAiMAX transfection), 0.005 µM; in the data set with ApoB [2] (alone, without SO1861-EMCH) it was 0.2 µM; in data set [3], 0.1 µM.
